Target: T1, chlamydial PDF (cPDF), peptide deformylase
T1 construct: gene def; C-terminal His6 tag (pET21), expressed in ArcticExpress E. coli, purified on TALON resin
Assay: TNBSA end-point deformylation assay (A335), Lineweaver-Burk
Assay type: biochemical, Chlamydia trachomatis
Details: fMAS substrate; 50 mM HEPES pH 7.2, 10 mM NaCl, 37 °C, 10 min; mode not stated; read-out: Wild-type
Description: TNBSA end-point deformylation assay (A335), Lineweaver-Burk on chlamydial PDF (cPDF), peptide deformylase

`CNC(=O)[C@H](Cc1c[nH]c2ccccc12)NC(=O)[C@@H](CC(=O)NO)CC(C)C` [GM6001, N-[(2R)-2-(hydroxamidocarbonylmethyl)-4-methylpentanoyl]-L-tryptophan methylamide] showed a Ki of 160 ± 35 nM.
